Measurements taken from patent US20230365558A1, “TETRAHYDROISOQUINOLINE DERIVATIVE AND USE THEREOF” (MEDSHINE DISCOVERY INC., priority 2020, published 2023).
Where two headings read alike, the source gives them in different places.

Assays:
[1] = Pharmacokinetic evaluation in CD-1 mice; details: for Clearance rate CL / Concentration integral AUC / Half-life T1/2 / Bioavailability F: CD-1 mice; for AUC / clearance / half-life / bioavailability: male, CD-1, mouse, in vivo
Description: Experimental objective: To study the pharmacokinetic parameters of the compounds in CD-1 mice
Animal experimental design: Male CD-1 mice (28.08 to 29.01 g, 6 to 7 weeks old), purchased from Shanghai Family Planning Research Institute, n=2/group, 4 mice in total; blood collection time points (h): 0.083 (intravenous injection only), 0.25 (intragastric administration only), 0.5, 1, 2, 4, 8, 10 and 24; compound dose by tail vein injection: 1 mg/kg; single dose by intragastric administration: 5 mg/kg; intravenous and intragastric administration vehicles: 20% N,N-dimethylacetamide aqueous solution, 20% hydroxypropyl-β-cyclodextrin aqueous solution, 5% DMSO/50% PEG400/45% water for injection or 10% Solutol/30% PEG400/60% water for injection. All animals had free access to water during the experiment, fasted overnight before administration, and resumed food supply 4 hours after administration. The entire animal experiment complied with the Institutional Animal Care and Use Committee (IACUC) animal welfare.
Sample collection and storage: After administration, approximately 0.03 mL of blood was collected from the saphenous vein of the mouse at each time point into a pre-frozen commercial EDTA-K2 tube, and placed on wet ice until centrifugation. Blood samples were centrifuged at 4° C., 3,200 g for 10 min. Plasma was collected separately, transferred to a pre-labeled 96-well plate, fast frozen on dry ice, and stored at −70±10° C. until LC-MS/MS analysis.
Pre-treatment of plasma samples: 3 μL of unknown, standard curve, QC, diluted QC and single and double blank samples were taken and placed in 1.5 mL tubes, and 60 μL of internal standard solution (internal standard: Labetalol 100 ng/mL acetonitrile solution, double blank with the same volume of pure acetonitrile) was added. The samples were vortexed for at least 15 seconds, and centrifuged at 4° C., 12,000 g for 15 min. 50 μL of the supernatant was taken and placed on a clean 96-well plate, and 200 μL of 70% acetonitrile was added. The plate was vortex at 800 rpm for 10 min, and centrifuged at 4° C., 3,220 g for 5 min. 2.0 μL of the supernatant was taken for LC-MS/MS analysis. 10-fold sample dilution procedure: 2 μL of the sample was added to 18 μL of blank matrix; 2-fold sample dilution procedure: 2 μL of the sample was added to 2 μL of blank matrix. Plasma was processed in the same manner as undiluted samples. The linear range was 4.00 to 6000 nM. Plasma concentrations would be analyzed with Triple Quad 6500 Plus, and pharmacokinetic parameters would be calculated with Phoenix WinNonlin 6.3.

[2] = system: Z-138 non-Hodgkin's lymphoma cells; assay: In vitro anti-proliferation assay of Z-138 cells (CellTiter-Glo, 6 days); assay type: cell-based, human; details: read-out: IC50 (nM), in vitro anti-proliferative activity on Z-138 tumor cells
Description: The plate was incubated at 37° C., CO2 and 100% relative humidity for 6 days. Samples were processed using Promega CellTiter-Glo Luminescent Cell Viability Assay Kit (Promega-G7571) standard method, and the luminescent signal was detected on a TECAN Spark®10M plate reader. Raw data were used to calculate the inhibition rate of the test compounds using the following equation: […]
(§1) The inhibition rates were imported into Excel separately to calculate the inhibition rates of compounds at different concentrations, and then XLfit software was used to plot inhibition curves and calculate relevant parameters, including minimum inhibition rate, maximum inhibition rate and IC50.

PRMT5 enzyme = PRMT5 enzyme (Homo sapiens (Human), UniProt O14744); assay: PRMT5 enzyme inhibitory activity assay (LANCE Ultra TR-FRET); assay type: biochemical
Description: Experimental objective: To test the inhibitory effect of compounds on PRMT5 enzyme activity
Experimental materials: PRMT5 enzyme
The plate was incubated at 25° C. for 30 min, then added with substrate, and reacted at 25° C. for 90 min. After 90 min, the detection reagent was added to the 384-well plate using PerkinElmer LANCE Ultra TR-FRET standard method to combine with the enzyme-substrate reaction product. […] Raw data were used to calculate the inhibition rate of the test compounds using the following equation: […]
as §1

[3] = system: MDA-MB-468 human breast cancer cells; assay: Anti-proliferative activity on MDA-MB-468 cells (CellTiter-Glo, 7 days); assay type: cell-based; details: Homo sapiens, 168 h, read-out: IC50 (nM), in vitro anti-proliferative activity on MDA-MB-468 tumor cells
Description: CellTiter-Glo (chemiluminescent cell viability detection reagent, purchased from Promega).
MDA-MB-468 cells were planted in a white 384-well plate with 40 μL of cell suspension per well, which contained 1000 MDA-MB-468 cells. The cell plate was cultured in a CO2 incubator overnight. […] 78 μL of culture medium was added to a middle plate, and then 2 μL of gradient diluted compound per well was transferred to the middle plate according to the corresponding position. After being thoroughly mixed, 10 μL per well was transferred to the cell plate. […] The cell plate was cultured in a CO2 incubator for 7 days. Another cell plate was prepared, and the signal value was read on the day of administration as the maximum value (Max value in the equation below) to participate in data analysis. 10 μL of chemiluminescent cell viability detection reagent per well was added to the cell plate, and the plate was incubated at room temperature for 10 min to stabilize the luminescent signal. A multi-label analyzer was used for reading. After the incubation of the cell plate with the compound was completed, 10 μL of chemiluminescent cell viability detection reagent per well was added to the cell plate, and the plate was incubated at room temperature for 10 min to stabilize the luminescent signal. A multi-label analyzer was used for reading.

[4] = injection administration (1 mg/kg)

Chain of PRMT5 enzyme (O14744 whole entry): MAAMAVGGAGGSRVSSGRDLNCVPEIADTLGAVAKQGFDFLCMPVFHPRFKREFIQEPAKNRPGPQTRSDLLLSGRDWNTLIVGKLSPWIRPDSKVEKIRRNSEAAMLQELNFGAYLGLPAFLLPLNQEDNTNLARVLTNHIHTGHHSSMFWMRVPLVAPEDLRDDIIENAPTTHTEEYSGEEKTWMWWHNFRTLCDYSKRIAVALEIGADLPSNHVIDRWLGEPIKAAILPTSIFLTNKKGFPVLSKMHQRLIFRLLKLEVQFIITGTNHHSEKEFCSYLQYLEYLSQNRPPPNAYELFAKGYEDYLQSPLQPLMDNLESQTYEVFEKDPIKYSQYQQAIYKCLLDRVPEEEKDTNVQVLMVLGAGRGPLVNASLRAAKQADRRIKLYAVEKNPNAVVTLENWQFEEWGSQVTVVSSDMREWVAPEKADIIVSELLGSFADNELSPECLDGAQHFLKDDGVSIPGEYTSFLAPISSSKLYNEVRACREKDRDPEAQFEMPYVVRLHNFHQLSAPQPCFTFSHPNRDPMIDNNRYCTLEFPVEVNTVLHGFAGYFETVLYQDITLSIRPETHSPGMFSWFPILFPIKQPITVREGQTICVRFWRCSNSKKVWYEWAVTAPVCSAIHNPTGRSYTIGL
Chain of PRMT5 enzyme (Q9BQA1 whole entry partner): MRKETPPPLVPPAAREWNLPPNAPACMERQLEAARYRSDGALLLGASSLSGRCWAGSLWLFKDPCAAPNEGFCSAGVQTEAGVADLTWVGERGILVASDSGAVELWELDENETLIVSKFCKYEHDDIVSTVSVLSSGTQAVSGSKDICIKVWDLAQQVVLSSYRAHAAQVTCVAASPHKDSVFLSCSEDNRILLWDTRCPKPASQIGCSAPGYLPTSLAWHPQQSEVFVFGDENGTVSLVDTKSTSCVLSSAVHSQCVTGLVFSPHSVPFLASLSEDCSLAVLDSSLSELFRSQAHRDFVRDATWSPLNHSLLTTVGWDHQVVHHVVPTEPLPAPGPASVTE

IC50 ([2]; Homo sapiens, Z-138, 144 h) [nM] | SMILES | Clearance rate CL [1, 4] [mL/min/kg] | Concentration integral AUC [1, 4] [µM·h] | Half-life T1/2 [1, 4] [min] | Bioavailability F ([1]; oral administration (5 mg/kg)) [%] | Concentration integral AUC ([1]; oral administration (5 mg/kg)) [µM·h] | IC50 [2] [nM] | IC50 (PRMT5 enzyme) [nM] | other results
47 | COCCN1CC2(C1)Oc1ccc(C(=O)NC[C@H](O)CN3CCc4ccccc4C3)cc1NC2=O [Compound 13] |  |  |  |  |  |  |  | 
14 | CS(=O)(=O)N1CC2(C1)Oc1ccc(C(=O)NC[C@H](O)CN3CCc4ccccc4C3)cc1NC2=O [Compound 14] |  |  |  |  |  |  |  | 
18 | O=C(NC[C@H](O)CN1CCc2ccccc2C1)c1ccc2c(c1)NC(=O)C1(CC(O)C1)O2 (stereo partly shown) [Compound 18] |  |  |  |  |  |  |  | AUC ([1]; 1 mg/kg): 0.545 µM·h; clearance ([1]; 1 mg/kg): 71.3 mL/min/kg; half-life ([1]; 1 mg/kg): 24.6 min; AUC ([1]; po, 5 mg/kg): 0.164 µM·h; bioavailability ([1]; po, 5 mg/kg): 6.02%
18 | CCOC1CC2(C1)Oc1ccc(C(=O)NC[C@H](O)CN3CCc4ccccc4C3)cc1NC2=O (stereo partly shown) [Compound 21] |  |  |  |  |  |  |  | 

Continued, compound first:

SMILES | IC50 ([2]; Homo sapiens, Z-138, 144 h) [nM] | Clearance rate CL [1, 4] [mL/min/kg] | Concentration integral AUC [1, 4] [µM·h] | Half-life T1/2 [1, 4] [min] | Bioavailability F ([1]; oral administration (5 mg/kg)) [%] | Concentration integral AUC ([1]; oral administration (5 mg/kg)) [µM·h] | IC50 [2] [nM] | IC50 (PRMT5 enzyme) [nM] | other results
O=C(NC[C@H](O)CN1CCc2ccccc2C1)c1ccc2c(c1)NC(=O)C1(CCCC1)O2 [Compound 2] |  | 39.7 | 0.967 | 33.6 | 8.6 | 0.417 | 24 | 128 | 
O=C(NC[C@H](O)CN1CCc2ccccc2C1)c1ccc2c(c1)NC(=O)C1(CCCCC1)O2 [Compound 3] |  | 78.1 | 0.474 | 9.6 | 7.2 | 0.171 | 78 | 18 | 
O=C(NC[C@H](O)CN1CCc2ccccc2C1)c1ccc2c(c1)NC(=O)C1(CCOCC1)O2 [Compound 4] |  | 63.3 | 0.583 | 16.2 | 21.5 | 0.626 |  | 22 | 
O=C(NC[C@H](O)CN1CCc2ccccc2C1)c1cnc2c(c1)NC(=O)C1(CCC1)O2 [Compound 6] |  | 42.1 | 0.944 | 14.4 | 16.4 | 0.773 | 6 |  | 
O=C(NC[C@H](O)CN1CCc2ccccc2C1)c1ccc2c(c1)NC(=O)C1(CC1)O2 [Compound 7] |  | 17.7 | 2.313 | 82.8 | 64.2 | 7.419 | 73 |  | 
O=C(NC[C@H](O)CN1CCc2ccccc2C1)c1cnc2c(c1)NC(=O)C1(CC1)O2 [Compound 8] | 10 |  |  |  |  |  |  | 15 | AUC ([1]; iv, 1 mg/kg): 0.875 µM·h; clearance ([1]; iv, 1 mg/kg): 53.3 mL/min/kg; half-life ([1]; iv, 1 mg/kg): 54.6 min; AUC ([1]; po, 5 mg/kg): 1.03 µM·h; bioavailability ([1]; po, 5 mg/kg): 24.5%; IC50 [3]: 12 nM
CC(C)N1CC2(C1)Oc1ccc(C(=O)NC[C@H](O)CN3CCc4ccccc4C3)cc1NC2=O [Compound 9] | 100 |  |  |  |  |  |  | 36 | AUC ([1]; 1 mg/kg): 0.336 µM·h; clearance ([1]; 1 mg/kg): 107 mL/min/kg; half-life ([1]; 1 mg/kg): 129 min; AUC ([1]; po, 5 mg/kg): 0.168 µM·h; bioavailability ([1]; po, 5 mg/kg): 10%
O=C(NC[C@H](O)CN1CCc2ccccc2C1)c1ccc2c(c1)NC(=O)C1(CN(CC(F)(F)F)C1)O2 [Compound 10] | 23 |  |  |  |  |  |  |  | AUC ([1]; 1 mg/kg): 0.785 µM·h; clearance ([1]; 1 mg/kg): 42.1 mL/min/kg; half-life ([1]; 1 mg/kg): 33 min; AUC ([1]; po, 5 mg/kg): 0.572 µM·h; bioavailability ([1]; po, 5 mg/kg): 14.6%
CC(=O)N1CC2(C1)Oc1ccc(C(=O)NC[C@H](O)CN3CCc4ccccc4C3)cc1NC2=O [Compound 11] | 88 |  |  |  |  |  |  |  | 
O=C(NC[C@H](O)CN1CCc2ccccc2C1)c1cc2c(nn1)OC1(CC1)C(=O)N2 [Compound 16] |  |  |  |  |  |  | 90 |  | 
